8 molecules from PubChem BioAssay (NCI) can be followed below.

Test in all cases: NCI tumour cell line growth inhibition, 48 h
Assay [1] relates to BT-549 breast.
In assay [2] the test system is HT29 colon.
Assay [3] relates to IGROV1 ovarian.
In assay [4] the test system is MDA-MB-435.
Assay [5] deals with MOLT-4 leukemia.
Assay [6] concerns NCI-H226 lung.
Assay [7] concerns NCI-H460 lung.
For assay [8], the system named is RXF 393 renal.
For assay [9], the system named is SK-MEL-2 melanoma.
Assay [10] concerns TK-10 renal.

Several values for one entry are separate records, joined by “and”; a condition that tells them apart may be missing. Identical values can stand only once.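 48-hour exposure; five concentrations; linearly interpolated endpoints. The concentration for 50% growth inhibition is given as GI50. Definition used: TGI = concentration required for complete inhibition of growth.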 Where a SMILES comes first, the peptide text is derived from it. [ ]: non-standard residue; d: D form. Orn = NCCC[CH](N)C(=O)O

Regarding `COc1ccc(-c2oncc2-c2cc(OC)c3c(c2)OCO3)cc1`, the GI50 is 5240 nM in assay [1]; 1690 nM in assay [2]; 3900 nM in assay [3]; 275 nM in assay [4]; 3900 nM in assay [5]; 9530 nM in [6]. In addition, the GI50 is 3580 nM in [7], 2900 nM in assay [8], 2880 nM in assay [9] and 7300 nM in [10]. In addition, the TGI was above 100000 nM in assay [1]; 13700 nM in assay [2]; above 65700 nM in assay [3]; 1270 nM in assay [4]; above 92600 nM in assay [5]; above 93800 nM in [6]. In addition, the TGI in assay [7] was above 100000 nM; in assay [8] it was 20300 nM; in [9] it was above 29500 nM; in assay [10], above 100000 nM.

Consider `CC(C)CC1NC(=O)C(CCCN)NC(=O)C(C(C)C)NC(=O)C2CCCN2C(=O)C(Cc2ccccc2)NC(=O)C(CC(C)C)NC(=O)C(CCCN)NC(=O)C(C(C)C)NC(=O)C2CCCN2C(=O)C(Cc2ccccc2)NC1=O` (centres undefined) (cyclo(FPV[Orn]LFPV[Orn]L); configuration not given here), for which the GI50 in assay [1] is 32.6 nM and 45.9 nM; in assay [2] it was 13.3 nM and 36.3 nM; in [3] it was 180 nM and 228 nM; in [4], 4.25 nM; in [5], 23.6 nM; in [6], 20.3 nM and 56.4 nM. For the same molecule, the GI50 is 11.1 nM and 28.7 nM in [7]; 35.2 nM and 51.5 nM in assay [8]; 9.39 nM and 24.3 nM in [9]; 21.3 nM and 104 nM in assay [10]. Further, the TGI in [1] is 261 nM and 271 nM; in assay [2], 266 nM and 1220 nM; in assay [3], 4690 nM and 3750 nM; in assay [4], 371 nM and 1210 nM; in assay [5] it was 402 nM; in assay [6], 1030 nM and 1920 nM. The TGI in assay [7] is 38.5 nM and 107 nM; in assay [8] it was 720 nM and 1440 nM; in assay [9], 40.4 nM and 89.1 nM; in assay [10], 1510 nM and 5710 nM.

As for `COc1ccc(C2SC(C)C(=O)N2NC(=O)C(O)c2ccccc2)cc1` (centres undefined), the GI50 in [1], in assay [2], in assay [3], in assay [4], in assay [5] and in assay [6] was above 100000 nM in each case. Also, the GI50 in [7], in assay [8], in assay [9] and in [10] was above 100000 nM throughout. Besides, the TGI in assay [1], in assay [2], in [3], in assay [4], in assay [5] and in assay [6] was above 100000 nM throughout. Also, the TGI in [7], in assay [8], in assay [9] and in assay [10] was above 100000 nM throughout.

As to `CNC(=S)N/N=C(/C)CCC/C(C)=N/NC(=S)NC`, the TGI in [1] was above 100000 nM; in assay [2] it was above 100000 nM; in assay [3], above 100000 nM; in [4], above 100000 nM; in assay [5], 303 nM; in assay [6], above 100000 nM. Also, the TGI in assay [7] was above 100000 nM; in assay [8], above 50300 nM; in assay [9], above 100000 nM; in [10], above 100000 nM.

With `N=C(N)c1ccc(-c2ccc(-c3ccco3)o2)cc1F`, the GI50 is 2190 nM in assay [1]; 1290 nM in assay [2]; 2130 nM in assay [3]; 1630 nM in assay [4]; 2270 nM in assay [5]; 2610 nM in assay [6]. For the same molecule, the GI50 was 1980 nM in assay [7], 1620 nM in assay [8], 2090 nM in assay [9] and 1690 nM in [10]. Also, the TGI in assay [1] is 5110 nM; in assay [2] it was 3300 nM; in assay [3], 6020 nM; in assay [4], 3250 nM; in assay [5], 5220 nM; in assay [6] it was 13600 nM. Moreover, the TGI in [7] was 4170 nM; in assay [8], 3690 nM; in [9], 3720 nM; in assay [10], 3240 nM.

In the case of `Cc1ccc(S(=O)(=O)C2=C3C(=C(c4ccccc4)c4ccccc43)CN(S(=O)(=O)c3ccc(C)cc3)C2)cc1`, the GI50 was 1930 nM in assay [1]; 3320 nM in assay [2]; 5360 nM in [3]; 3760 nM in assay [4]; 1360 nM in [5]; 2570 nM in assay [6]. The GI50 in assay [7] is 1940 nM; in assay [8] it was 4010 nM; in assay [9], 6100 nM; in assay [10] it was 14200 nM. Moreover, the TGI in assay [1] was determined as 4650 nM; in assay [2] it was 69400 nM; in assay [3], 62600 nM; in [4], 17900 nM; in assay [5], 7900 nM; in assay [6] it was 7850 nM. Besides, the TGI in [7] worked out at 15100 nM; in assay [8], 16000 nM; in assay [9] it was 30300 nM; in assay [10] it was 30100 nM.

As to `Cc1ccc(S(=O)(=O)N2C/C(=C\c3cc(F)cc(F)c3)C(=O)/C(=C/c3cc(F)cc(F)c3)C2)cc1`, the GI50 in assay [1] is 286 nM; in assay [2] it was 215 nM; in assay [3], 371 nM; in assay [4], 236 nM; in assay [5], 299 nM; in [6] it was 2420 nM. In addition, the GI50 was 742 nM in assay [7], 535 nM in assay [8], 972 nM in assay [9] and 994 nM in assay [10]. Moreover, the TGI came out at 709 nM in assay [1]; 544 nM in assay [2]; 1400 nM in [3]; 653 nM in assay [4]; 2110 nM in assay [5]; 2910 nM in assay [7]. The figures for the TGI in assay [8], in [9] and in assay [10] were 1820 nM, 2840 nM and 2990 nM, respectively.

For the molecule `COc1cccc(-c2cc(NCc3ccc4c(c3)OCO4)nc(N)n2)c1`, the GI50 in assay [1] is 149 nM; in assay [2] it was 42.3 nM; in [3], 143 nM; in assay [4], 17.5 nM; in [5], 110 nM; in [6], 11700 nM. Moreover, the GI50 in assay [7] is 42.8 nM; in [8], 110 nM; in [9], 219 nM; in [10], 8960 nM. The TGI in assay [1] came to 5150 nM; in [2] it was 6840 nM; in [3], 19100 nM; in assay [4], 52.1 nM; in assay [5], 12800 nM; in [6], 32500 nM. The TGI came to 9590 nM in assay [7], 17200 nM in [8], 17900 nM in [9] and 29000 nM in assay [10].
